From patent US9302993B2, “8-hydroxy quinoline derivatives” (PRANA BIOTECHNOLOGY LIMITED, priority 2002, dated 2016)

Tests used:
[1] = tested on: transgenic Huntington's mice (R6/2); assay: PBT1033 effects in transgenic Huntington's mice (Example 22); type: in vivo, mouse
Text: This example describes an in vivo study of PBT1033 in transgenic Huntington's mice (R6/2) using the procedure of Nyuyen, Harby and Massa, 2005. During this study, 44 samples were collected for behavioral tests, including Rotarod performance, clasping tests, body weight and lifespan observations, and 24 samples were utilized for pathology assessments, including brain sectioning and staining for measuring lateral ventricle size, brain weight, whole brain western blotting for mutant Htt aggregate accumulation, and immunocytochemistry for Htt aggregates.
GROUP A: 10+6 (pathology) R6/2 MICE, treated daily with PBT1033
GROUP B: 10+6 (pathology) R6/2 MICE, treated daily with SSV solution
GROUP C: 12+6 (pathology) wild type (WT) mice, treated daily with PBT1033
GROUP D: 12+6 (pathology) WT mice, treated daily with SSV solution
3. PBT1033 in SSV solution was orally administered to mice at 0.6 mg/0.1 ml ([…])/20 g. The PBT1033 solution was taken up into a 1-cc syringe attached to a feeding needle and the drug was delivered by oral gavage.
4. Rotarod was assessed as described by Hockly et al., the contents of which are incorporated by reference, with the modification that the SDI Rota—Rod (San Diego Instruments, San Diego), was set to linearly increase in speed to 40 rpm in 4-min ramp time. Performance is at 4th, 8th, 10th, and 12th week, with three days (one for training) per period and three times per day.
5. Body Weight: once per week, start at age 3 weeks.
6. Clasping testing and Behavioral observation: once per week from 5th week and daily during the drug treating.
7. Lifespan observation: Group A and B were treated until they died.
8. Brain lateral ventricle size: mouse brain perfusion, sectioning and staining at age 10 weeks. Mice brains were perfused and fixed with 4% PFA and stained with H&E.
9. Whole Brain Western Blotting: whole mouse brain was homogenized in buffer (10 mM Tris HCl (pH 7.4) 11 mM EDTA Na2/1% Triton X100/complete protease inhibitor mixture and then centrifuged at 7000×g for 90 s. The supernatant was boiled in SDS sample buffer for 5 mm at 100° C.
40 micrograms of total protein was run on a 10% SDS gel with a 4% stacking gel. Antibody: anti-GAPDH (1:5000), EM48 anti-Htt antibody (1:1000)
10. Brain weight: brain weighed before freezing at −80° C.
11. Immunohistochemistry was performed in accordance with the procedure in Assay 15, hereinabove.

[2] = Mice plasma concentration; type: in vivo
[3] = Toxicity at 30 mg/kg (In vivo Efficacy and Safety Profile)
healthy volunteers = assay: Clinical study of 1033, single and multiple oral doses (Example 23); type: in vivo
Protocol: 1033 was administered to healthy volunteers in a 2-part study comprising single dose administration (Stage A) and multidose administration (Stage B).
The objectives of the following trials were to determine the safety, tolerability and pharmacokinetics of single and multiple oral doses of 1033 in healthy volunteers. Double-blind studies were conducted. The protocol included safety measures designed to capture the potential human adverse effects. A total of 65 healthy subjects have been exposed to doses of 1033 (41 single dose, 24 multiple dose).
In Stage A, fifty five (55) healthy male subjects aged 18-50 years were randomised (3:1) to receive a single oral dose of either placebo or 1033 at one of 7 dose levels (25, 50, 100, 200, 300, 500 or 800 mg).
In Stage B, thirty two (32) healthy male and female subjects aged 45-75 years (eight subjects per dose level) were randomised (3:1) to receive a daily oral dose over 7 consecutive days of either placebo or 1033 at one of 4 dose levels (200, 400, 600 or 800 mg). Each dose level comprised of 4 males and 4 females; the randomisation schedule ensuring that 1 subject/sex received placebo and 3 subjects/sex received 1033.

B:P Ratio = type: in vivo

Compound: CN(C)Cc1ccc2c(Cl)cc(Cl)c(O)c2n1.Cl [compound 1033, 5,7-Dichloro-2-dimethylaminomethyl-quinolin-8-ol hydrochloride]
- life span ([1]; Group A (PBT1033) compared with Group B (SSV)): survived significantly longer
- clasping latency and duration ([1]; Group B (SSV) compared with Group A (PBT1033)): significantly greater
- body weight ([1]; Group B (SSV) vs A, C and D groups): significantly decreased
- brain weight ([1]; R6/2 mice, Group A): 0.373±0.0228
- rotarod performance time ([1]; R6/2 mice, Group A, 10th week): 28 ± 4 s
- rotarod performance time ([1]; R6/2 mice, Group A, 12 week): 26 ± 4 s
- Lateral ventricle area ([1]; R6/2 mice, Group A, age 10 weeks): 0.36±0.086 mm^2
- mutant Huntingtin (Htt) protein aggregates, Western analysis ([1]; whole brain, HDexon1 mice): not in treated animals
- Mice plasma concentration [2]: Up to 500 ng/ml
- Toxicity at 30 mg/kg [3]: None
- tolerability, single oral dose (healthy volunteers; Stage A, healthy male volunteers aged 18 to 50 years, 25-800 mg): well tolerated
- clinical laboratory evaluations and physical assessments (healthy volunteers; Stage A, single oral dose): No clinically significant or relevant changes
- incidence of adverse events (healthy volunteers; Stage A, single oral dose): 43.9%
- tolerability, multiple dose (healthy volunteers; Stage B, healthy elderly subjects, daily oral dose over 7 days, 200-800 mg): generally well tolerated
- B:P Ratio (B:P Ratio; at 5 min): 12.85
- B:P Ratio (B:P Ratio; at 60 min): 9.45
